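1) Cells in 96-well plates. 2) Compound, 48 h, 5 concentrations. 3) Linear interpolation between surrounding doses. 4) Unreached endpoint = highest concentration. TGI: concentration producing complete growth inhibition.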
Experiments:
Experiment in all cases: NCI anticancer screen, dose series, 48 h
[1] = tested on: A549 NSCLC
[2] = tested on: BT-549 breast
[3] = tested on: COLO 205 colon
[4] = tested on: DU-145 prostate
[5] = tested on: LOX IMVI melanoma
[6] = tested on: MALME-3M melanoma
[7] = tested on: MDA-MB-435
[8] = tested on: SR leukemia
[9] = tested on: TK-10 renal
[10] = tested on: UO-31 renal

Row | Compound | TGI [1] | TGI [2] | TGI [3] | TGI [4] | TGI [5] | TGI [6] | TGI [7] | TGI [8] | TGI [9] | TGI [10]
1 | O=c1cc(/C=C/c2ccc(O)c(O)c2)oc(/C=C/c2ccc(O)c(O)c2)c1 | 37.1 µM | 15.2 µM | 21.6 µM | 12.8 µM | > 25.2 µM | 19.1 µM | 11.8 µM | 8.52 µM | 19.4 µM | 15.8 µM
2 | COc1ccc(N2C(=O)c3c4c(c5c([nH]c6ncccc65)c3C2=O)CCC(C(C)(C)C)C4)cc1 (stereo not drawn) | > 100 µM | > 100 µM | > 100 µM | > 100 µM |  |  | > 100 µM | > 100 µM | > 100 µM | > 100 µM
3 | C=C1[C@@H](O)C[C@@]23CC[C@@H]4[C@@]5(C)CC[C@@H](OC(C)=O)C(C)(C)[C@@H]5C[C@@H](OC5OC(COC(C)=O)C(O)C(O)C5O)[C@@]4(C)C2=CC[C@H]3[C@H]1C (stereo partly drawn) | 16.8 µM | 21.4 µM | 4.36 µM | 22.6 µM | 10.9 µM | 23.9 µM | 15.3 µM | 5.07 µM | 21 µM | 28 µM
4 | O=C1CCSSCCC(=O)NCCN1 | > 100 µM | > 100 µM | > 100 µM | > 100 µM | > 100 µM | > 100 µM | > 100 µM | > 100 µM | > 100 µM | > 100 µM
5 | Cc1cc(C)c2c(=O)n(CN3CC4Nc5ccccc5C4C3)sc2n1 (stereo not drawn) | > 100 µM | > 100 µM | 71.5 µM | 40.9 µM | 48.5 µM | 27.8 µM | 42.2 µM | > 100 µM | 35.8 µM | 32.5 µM
6 | O=C(CN1CCCCC1)CC(O)(C(F)(F)F)C(F)(F)F | > 100 µM | > 100 µM | > 100 µM | > 100 µM | > 100 µM | > 100 µM | > 100 µM | > 100 µM | > 100 µM | > 100 µM
7 | COc1cc(OCc2ccc3oc(=O)c(-c4ccccc4)nc3c2)cc(OC)c1OC | > 100 µM | > 100 µM | > 100 µM | > 100 µM | > 100 µM | > 100 µM | > 100 µM | > 100 µM | > 100 µM | > 100 µM
8 | CN(C)c1ccc(-c2c(C#N)c(S)n(NS(=O)(=O)c3ccccc3)c(=O)c2C#N)cc1 | > 100 µM | 61.7 µM | > 100 µM | > 100 µM | > 100 µM | > 100 µM | 92.6 µM | > 100 µM | 41.4 µM | 86.4 µM
9 | CC1(C)O[C@@H]2COC(=O)[C@@H]2O1 | > 100 µM | > 100 µM | > 100 µM | > 100 µM | > 100 µM | > 100 µM | > 100 µM | > 100 µM | > 100 µM | > 100 µM
10 | CCCCn1c2c(n(CCCC)c1=S)-c1c(n(CCCC)c(=S)n1CCCC)S[Se][Se]S2 | > 88.7 µM | 35.5 µM | 3.87 µM | > 60.4 µM | 27.2 µM | 5.09 µM | 39.1 µM | > 100 µM | 30.5 µM | 9.02 µM
11 | O=C1c2ccccc2CN1c1ccc(O)cc1 | > 100 µM | > 100 µM | > 100 µM | > 100 µM | > 100 µM | > 100 µM | > 100 µM | > 100 µM | > 100 µM | 
12 | OC[C@@H](O)[C@H]1NC[C@@H](O)[C@H]1O | > 100 µM | > 100 µM | > 100 µM | > 100 µM |  | > 100 µM | > 100 µM | > 100 µM | > 100 µM | > 100 µM
13 | NC(CSCc1ccccc1)C(=O)O (stereo not drawn) | > 100 µM | > 100 µM | > 100 µM | > 100 µM | > 100 µM | > 100 µM | > 100 µM | > 100 µM | > 100 µM | > 100 µM
14 | CCOC1CC(=O)c2c(Br)sc(Br)c21 (stereo not drawn) | 95.1 µM | 66.1 µM | 38.4 µM | 32.5 µM | 42.2 µM | 40.8 µM | 33.6 µM | 60.3 µM | 46.4 µM | 33.5 µM
15 | C[n+]1c(-c2ccccc2)cc2/c(=C\c3ccc([N+](=O)[O-])cc3)c3ccccc3n21 | > 100 µM | 1.67 µM | > 100 µM | 35.3 µM | 17.6 µM |  | 14.4 µM | > 41.7 µM | > 100 µM | 35.5 µM
16 | CC(=O)NS(=O)(=O)c1ccc(NC(=O)c2c3ccccc3nc3ccccc23)cc1 | > 100 µM | > 100 µM | > 100 µM | > 100 µM | > 100 µM | > 100 µM | > 100 µM | > 100 µM | > 100 µM | > 100 µM
17 | Cc1cc2c(C)cc(=O)[nH]c2cc1N | > 100 µM | > 100 µM | > 100 µM | > 100 µM | > 100 µM |  | > 100 µM | > 100 µM |  | > 100 µM
18 | CCOC(=O)c1[nH]cc(C)c1-c1ccn(-c2ccccc2)c1 | > 100 µM | > 100 µM | > 100 µM | > 100 µM | > 100 µM |  | > 100 µM | 72.4 µM | > 100 µM | > 100 µM
19 | CC(CC(C#N)(c1ccccc1)c1ccccc1)N1CCCCC1 (stereo not drawn) | > 100 µM | > 100 µM | 32.9 µM | > 100 µM | 33.5 µM | 35.6 µM | 49.4 µM |  | 46.5 µM | 79.6 µM
20 | CC(=O)OC[C@]1(C(=O)C(O)c2ccoc2)[C@H](C)CC[C@@]23COC(=O)C2=CCC[C@@H]31 (stereo partly drawn) | > 10 µM | > 10 µM | > 10 µM | > 10 µM | > 10 µM |  | > 10 µM | > 10 µM | > 10 µM | > 10 µM
21 | COc1ccc(/C(=N/O)c2ccccc2-c2nc3ccccc3c(=O)n2-c2ccc(S(=O)(=O)Nc3ncccn3)cc2)cc1C | > 31.6 µM | 31.3 µM | > 31.6 µM | > 31.6 µM |  |  | 27.3 µM | 31 µM | > 31.6 µM | > 31.6 µM
22 | Cc1ccccc1OC(C)C(=O)NN1C(=O)CC(=O)N(c2ccc(Cl)cc2)C1=S (stereo not drawn) | > 100 µM | > 100 µM | 68.3 µM | > 100 µM | > 100 µM | > 100 µM | > 100 µM | 84.1 µM | > 100 µM | > 100 µM
